Measured values published in the supplement of paper PMC10331698.
± gives the standard deviation of the averaged measurements.

Tests used:
Assay in all cases: level (log10 ratio to DMSO vehicle control); higher = higher biomarker level / cell amount than vehicle control
Settings in all cases: in DMSO
[1] = compound: O=S(=O)(O)C(F)(F)C(F)(F)C(F)(F)C(F)(F)C(F)(F)C(F)(F)C(F)(F)C(F)(F)F [Perfluorooctanesulfonic acid]
Description: (§1)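 BioMAP Diversity Plus panel of 12 human primary cell co-culture systems (3C, 4H, LPS, SAg, BT, BF4T, BE3C, CASM3C, HDF3CGF, KF3CT, MyoF, Mphg). Compounds were added 1 h before stimulation and left for 24 h (MyoF 48 h; BT 72 h for soluble read-outs or 6 d for IgG). Biomarkers were read by ELISA, cytotoxicity by SRB, PBMC viability and proliferation by Alamar Blue. Each well value was divided by the mean of 8 DMSO control wells on the same plate and log10 transformed; duplicate blinded samples were tested at 4 concentrations.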

[2] = compound: O=C(O)CCC(F)(F)C(F)(F)C(F)(F)C(F)(F)C(F)(F)F [2H,2H,3H,3H-Perfluorooctanoic acid]
Description: as §1

[3] = compound: CNS(=O)(=O)C(F)(F)C(F)(F)C(F)(F)C(F)(F)C(F)(F)C(F)(F)C(F)(F)C(F)(F)F [N-Methylperfluorooctanesulfonamide]
Description: as §1

[4] = compound: CC(C)(C)C(=O)CC(=O)C(F)(F)C(F)(F)C(F)(F)F [(Heptafluorobutanoyl)pivaloylmethane]
Description: as §1

[5] = compound: O=C(O)C(F)(F)C(F)(F)C(F)(F)C(F)(F)C(F)(F)C(F)(F)C(F)(F)C(F)(F)C(F)(F)C(F)(F)C(F)(F)C(F)(F)C(F)(F)F [Perfluorotetradecanoic acid]
Description: as §1

[6] = compound: C=C(C)C(=O)OCC(F)(F)C(F)(F)C(F)(F)C(F)(F)C(F)(F)C(F)(F)C(F)(F)F
Description: as §1

Hexafluoroglutaric acid = compound: O=C(O)C(F)(F)C(F)(F)C(F)(F)C(=O)O [Hexafluoroglutaric acid]
Description: as §1

| Test System | level (log10) ([1]; 6700 nM) | level (log10) ([1]; 20000 nM) | level (log10) ([1]; 60000 nM) | level (log10) ([2]; 6700 nM) | level (log10) ([2]; 20000 nM) | level (log10) ([2]; 60000 nM) | level (log10) ([3]; 6700 nM) | level (log10) ([3]; 20000 nM) | level (log10) ([3]; 60000 nM) | level (log10) ([4]; 6700 nM) | level (log10) ([4]; 20000 nM) | level (log10) ([4]; 60000 nM) | level (log10) ([5]; 6700 nM) | level (log10) ([5]; 20000 nM) | level (log10) ([6]; 6700 nM) | level (log10) ([6]; 20000 nM) | level (log10) (Hexafluoroglutaric acid; 6700 nM) | level (log10) (Hexafluoroglutaric acid; 20000 nM) | level (log10) (Hexafluoroglutaric acid; 60000 nM) |
| --- | --- | --- | --- | --- | --- | --- | --- | --- | --- | --- | --- | --- | --- | --- | --- | --- | --- | --- | --- |
| HDF3CGF:Collagen III | -0.024 ± 0.031 | -0.0155 ± 0.015 | -0.0585 ± 0.013 | -0.064 ± 0.055 | -0.076 ± 0.033 | -0.039 ± 0.061 | -0.102 ± 0.0035 | -0.143 ± 0.011 | -0.092 ± 0.037 | -0.008 ± 0.11 | 0.0535 ± 0.025 | 0.0555 ± 0.018 | -0.114 ± 0.057 | -0.094 ± 0.13 | -0.004 ± 0.0042 | -0.0005 ± 0.0078 | -0.0065 ± 0.015 | -0.0275 ± 0.00071 | -0.0125 ± 0.00071 |
| MyoF:CD106/VCAM-1 | 0.0055 ± 0.0021 | 0.0085 ± 0.016 | 0.0165 ± 0.023 | -0.0015 ± 0.019 | -0.0115 ± 0.021 | 0.0005 ± 0.012 | 0.0065 ± 0.0078 | -0.0035 ± 0.016 | -0.0155 ± 0.012 | -0.011 ± 0.035 | -0.0065 ± 0.028 | 0.005 ± 0.0085 | -0.0045 ± 0.019 | 0.013 ± 0.025 | 0.0035 ± 0.015 | 0.019 ± 0.0099 | -0.0145 ± 0.021 | -0.023 ± 0.0099 | -0.006 ± 0.0014 |
| MyoF:Decorin | 0.018 ± 0.0071 | 0.0365 ± 0.013 | 0.054 ± 0.018 | -0.0075 ± 0.0021 | -0.0065 ± 0.00071 | 0.019 ± 0.0071 | 0.0105 ± 0.012 | 0.005 ± 0.0085 | -0.016 ± 0.0085 | 0.0195 ± 0.059 | 0.018 ± 0.03 | 0.0365 ± 0.021 | 0.033 ± 0.027 | 0.0515 ± 0.026 | -0.011 ± 0.04 | 0.0175 ± 0.081 | -0.0145 ± 0.0078 | -0.0225 ± 0.0064 | -0.031 ± 0.0099 |
| 3C:CD54/ICAM-1 | 0.004 ± 0.023 | 0.0185 ± 0.019 | 0.071 ± 0.024 | 0.0005 ± 0.0064 | -0.0055 ± 0.018 | -0.0175 ± 0.022 | -0.0265 ± 0.022 | 0.103 ± 0.026 | 0.043 ± 0.0014 | -0.0015 ± 0.019 | -0.0095 ± 0.005 | 0.03 ± 0.011 | -0.0005 ± 0.0078 | -0.0045 ± 0.013 | 0.019 ± 0.028 | 0.014 ± 0.018 | -0.0125 ± 0.018 | -0.0165 ± 0.019 | -0.0175 ± 0.018 |
| KF3CT:CCL2/MCP-1 | -0.044 ± 0.017 | -0.0205 ± 0.0078 | 0.0005 ± 0.00071 | -0.026 | 0.0135 ± 0.016 | -0.0235 ± 0.069 | 0.029 ± 0.017 | -0.01 ± 0.014 | -0.0185 ± 0.005 | 0.0025 ± 0.005 | 0.035 ± 0.0085 | 0.0645 ± 0.013 | 0.004 ± 0.0071 | 0.0205 ± 0.0078 | -0.016 ± 0.025 | 0.0325 ± 0.03 | -0.0255 ± 0.04 | -0.0325 ± 0.067 | -0.0245 ± 0.0021 |
